# System: Human umbilical vein endothelial cells (HUVECs)
# Experiment: eNOS activity analysis: NO, ONOO− and NO/ONOO− release from HUVECs of 50 genotyped donors in response to LA-419 (Example 2)
# Type: cell-based
# Method: Concurrent measurements of NO and ONOO^− were carried out with tandem electrochemical nanosensors combined into one working unit with a total diameter of 200-500 nm (FIG. 1). Their design was based on previously developed and well-characterized chemically modified carbon-fiber technology (Malinski and Taha, 1992; Lvovich and Scheeline, 1997). Each of the nanosensors was made by depositing a sensing material on the tip of a carbon fiber (length 4-5 μm, diameter 0.2-0.5 μm). The fibers were sealed with nonconductive epoxy and electrically connected to copper wires with conductive silver epoxy. A conductive film of polymeric nickel (II) tetrakis(3-methoxy-4-hydroxyphenyl)porphyrin for the NO-sensor and polymeric film of Mn (III) [2.2]paracyclophanylporphyrin was used for the ONOO^−-sensor.
# A module of NO/ONOO^− nanosensors (diameter 1-2 μm) with a platinum wire (0.1 mm) counter electrode and saturated calomel reference electrode (SCE) were applied. Differential pulse voltammetry (DPV) and amperometry were performed with a computer-based Gamry VFP600 multichannel potentiostat. DPV was used to measure the basal NO and ONOO^− concentrations, and amperometry was used to measure changes in NO and ONOO^− concentrations from its basal level with time. The DPV current at the peak potential characteristic for NO oxidation (0.65 V) and ONOO^− reduction (−0.45 V) was directly proportional to the local concentrations of these compounds in the immediate vicinity of the sensor. Linear calibration curves (current vs. concentration) were constructed for each sensor from 10 nM to 3 μM before and after measurements with aliquots of NO and ONOO^− standard solutions, respectively. The detection limit of the sensors was 1.0 nM.
# The quantification of each analyte (concentration in nM) was performed using a maximum current from amperograms and standard calibration curves. A reproducibility of measurements with nanosensors is relatively high (between 5-12%). […] The sensors were slowly raised 5±2 μm from the surface of a single endothelial cell. The eNOS agonist, calcium ionophore A23187 (CaI) as well as the different drugs were then added to the surrounding media at the cell surface with a nanoinjector that was also positioned by a computer controlled-micromanipulator.
# This example describes the genotype-specific response of the three major eNOS variants to 1 μM and 5 μM concentrations of LA-419. The three major genetic polymorphisms studied were the Glu298Asp variant (E298D or 894G→T) in exon 7 of […], the −786T→C variant in the promoter region, and the intron 4 polymorphism (VNTR). All of these variants have possible effects on the cardiovascular system and endothelial dysfunction. For this study, human umbilical vein endothelial cells (HUVECs) from 50 donors between 18 and 32 years of age were used.
# For the analysis several analysis techniques were employed. First, the effect of genotype on NO and ONOO^− release was explored within the different concentrations of LA-419 (control, 1 μM, 5 μM), calculated as the average peak release (nmols/L) of NO, ONOO^−, and NO/ONOO^−. The effect of genotype on the net increase in NO, ONOO^−, and NO/ONOO^− for LA-419 (1 μM and 5 μM) as compared to control was also measured. In addition, an analysis was done on the effect of genotype on the % change in NO, ONOO^−, and NO/ONOO^− production for LA-419 (1 μM and 5 μM), calculated as:
# % Change=[(avg. LA-419−avg. control)/(avg. control)]*100
# Finally, an evaluation was undertaken concerning the effect of genotype on the production of NO, ONOO^−, and NO/ONOO^− as the fold difference of control for LA-419 (1 μM and 5 μM), calculated as:
# Fold Difference=(avg. LA-419)/(avg. control)
# Within each calculation technique the results were compared for statistical significance using a non-parametric ANOVA Kruskal-Wallace test or a non-parametric Mann-Whitney U test. Statistical significance was set at a p-value <0.05 in a two-tailed distribution. […]
# [1] = (LA-419 5 μM)/(control), T-786C C/C, n=4
# [2] = (LA-419 5 μM)/(control), T-786C T/C & C/C, n=27
# [3] = (LA-419 5 μM)/(control), T-786C T/C, n=23
# [4] = (LA-419 5 μM)/(control), T-786C T/T & T/C, n=45
# [5] = (LA-419 5 μM)/(control), T-786C T/T, n=22
# [6] = Caucasian, (LA-419 1 μM)/(control), Combination of all G894T + T-786C genotypes but G/G + T/T, n=19
# [7] = Caucasian, (LA-419 1 μM)/(control), G894T + T-786C G/G + T/C, n=3
# [8] = Caucasian, (LA-419 1 μM)/(control), G894T + T-786C G/G + T/T, n=7
# [9] = Caucasian, (LA-419 1 μM)/(control), G894T + T-786C G/T + T/C, n=10
# [10] = Caucasian, (LA-419 1 μM)/(control), G894T + T-786C G/T + T/T, n=3
# [11] = Caucasian, (LA-419 1 μM)/(control), G894T + T-786C T/T + T/C, n=2
# [12] = Caucasian, (LA-419 1 μM)/(control), G894T G/G, n=10
# [13] = Caucasian, (LA-419 1 μM)/(control), G894T G/T & T/T, n=16
# [14] = Caucasian, (LA-419 1 μM)/(control), G894T G/T, n=13
# [15] = Caucasian, (LA-419 1 μM)/(control), G894T T/T, n=3
# [16] = Caucasian, (LA-419 1 μM)/(control), Intron 4 b/a & a/a, n=6
# [17] = Caucasian, (LA-419 1 μM)/(control), Intron 4 b/a, n=5
# [18] = Caucasian, (LA-419 1 μM)/(control), Intron 4 b/b, n=18
# [19] = Caucasian, (LA-419 1 μM)/(control), T-786C T/C & C/C, n=16
# [20] = Caucasian, (LA-419 1 μM)/(control), T-786C T/C, n=15
# [21] = Caucasian, (LA-419 1 μM)/(control), T-786C T/T, n=10
# [22] = Caucasian, (LA-419 5 μM)/(control), Combination of all G894T + T-786C genotypes but G/G + T/T, n=19
# [23] = Caucasian, (LA-419 5 μM)/(control), G894T + T-786C G/G + T/C, n=3
# [24] = Caucasian, (LA-419 5 μM)/(control), G894T + T-786C G/G + T/T, n=7
# [25] = Caucasian, (LA-419 5 μM)/(control), G894T + T-786C G/T + T/C, n=10
# [26] = Caucasian, (LA-419 5 μM)/(control), G894T + T-786C G/T + T/T, n=3
# [27] = Caucasian, (LA-419 5 μM)/(control), G894T + T-786C T/T + T/C, n=2
compound,measurement,setting,value
"CC(=O)SC1COC2C(O[N+](=O)[O-])COC12 (stereo not drawn) [LA-419, S-(6-Nitro-oxi-hexahydro-furo[3,2-b]furan-3-1-il)thioacetate]",Fold difference NO (mean ± sd),[1],1.12 (0.06)
same,Fold difference NO/ONOO− (mean ± sd),[1],1.42 (0.13)
same,Fold difference ONOO− (mean ± sd),[1],0.79 (0.08)
same,Fold difference NO (mean ± sd),[2],1.13 (0.07)
same,Fold difference NO/ONOO− (mean ± sd),[2],1.39 (0.13)
same,Fold difference ONOO− (mean ± sd),[2],0.82 (0.06)
same,Fold difference NO (mean ± sd),[3],1.14 (0.07)
same,Fold difference NO/ONOO− (mean ± sd),[3],1.39 (0.14)
same,Fold difference ONOO− (mean ± sd),[3],0.82 (0.06)
same,Fold difference NO (mean ± sd),[4],1.15 (0.06)
same,Fold difference NO/ONOO− (mean ± sd),[4],1.44 (0.16)
same,Fold difference ONOO− (mean ± sd),[4],0.81 (0.07)
same,Fold difference NO (mean ± sd),[5],1.16 (0.06)
same,Fold difference NO/ONOO− (mean ± sd),[5],1.49 (0.18)
same,Fold difference ONOO− (mean ± sd),[5],0.79 (0.08)
same,Fold difference NO (mean ± sd),[6],1.20 (0.29)
same,Fold difference NO/ONOO− (mean ± sd),[6],1.61 (0.77)
same,Fold difference ONOO− (mean ± sd),[6],0.81 (0.16)
same,Fold difference NO (mean ± sd),[7],1.13 (0.03)
same,Fold difference NO/ONOO− (mean ± sd),[7],1.27 (0.04)
same,Fold difference ONOO− (mean ± sd),[7],0.89 (0.02)
same,Fold difference NO (mean ± sd),[8],1.25 (0.12)
same,Fold difference NO/ONOO− (mean ± sd),[8],1.63 (0.72)
same,Fold difference ONOO− (mean ± sd),[8],0.84 (0.22)
same,Fold difference NO (mean ± sd),[9],1.29 (0.37)
same,Fold difference NO/ONOO− (mean ± sd),[9],1.75 (0.91)
same,Fold difference ONOO− (mean ± sd),[9],0.81 (0.16)
same,Fold difference NO (mean ± sd),[10],1.08 (0.03)
same,Fold difference NO/ONOO− (mean ± sd),[10],1.21 (0.04)
same,Fold difference ONOO− (mean ± sd),[10],0.90 (0.06)
same,Fold difference NO (mean ± sd),[11],1.11 (0.36)
same,Fold difference NO/ONOO− (mean ± sd),[11],2.25 (1.17)
same,Fold difference ONOO− (mean ± sd),[11],0.52 (0.11)
same,Fold difference NO (mean ± sd),[12],1.21 (0.12)
same,Fold difference NO/ONOO− (mean ± sd),[12],1.52 (0.61)
same,Fold difference ONOO− (mean ± sd),[12],0.86 (0.18)
same,Fold difference NO (mean ± sd),[13],1.21 (0.32)
same,Fold difference NO/ONOO− (mean ± sd),[13],1.68 (0.83)
same,Fold difference ONOO− (mean ± sd),[13],0.79 (0.17)
same,Fold difference NO (mean ± sd),[14],1.24 (0.33)
same,Fold difference NO/ONOO− (mean ± sd),[14],1.63 (0.82)
same,Fold difference ONOO− (mean ± sd),[14],0.83 (0.15)
same,Fold difference NO (mean ± sd),[15],1.08 (0.26)
same,Fold difference NO/ONOO− (mean ± sd),[15],1.90 (1.02)
same,Fold difference ONOO− (mean ± sd),[15],0.63 (0.19)
same,Fold difference NO (mean ± sd),[16],1.25 (0.33)
same,Fold difference NO/ONOO− (mean ± sd),[16],1.52 (0.70)
same,Fold difference ONOO− (mean ± sd),[16],0.86 (0.10)
same,Fold difference NO (mean ± sd),[17],1.28 (0.35)
same,Fold difference NO/ONOO− (mean ± sd),[17],1.58 (0.77)
same,Fold difference ONOO− (mean ± sd),[17],0.85 (0.12)
same,Fold difference NO (mean ± sd),[18],1.21 (0.25)
same,Fold difference NO/ONOO− (mean ± sd),[18],1.69 (0.80)
same,Fold difference ONOO− (mean ± sd),[18],0.79 (0.20)
same,Fold difference NO (mean ± sd),[19],1.22 (0.31)
same,Fold difference NO/ONOO− (mean ± sd),[19],1.69 (0.82)
same,Fold difference ONOO− (mean ± sd),[19],0.79 (0.17)
same,Fold difference NO (mean ± sd),[20],1.24 (0.32)
same,Fold difference NO/ONOO− (mean ± sd),[20],1.72 (0.84)
same,Fold difference ONOO− (mean ± sd),[20],0.79 (0.17)
same,Fold difference NO (mean ± sd),[21],1.20 (0.13)
same,Fold difference NO/ONOO− (mean ± sd),[21],1.50 (0.62)
same,Fold difference ONOO− (mean ± sd),[21],0.86 (0.18)
same,Fold difference NO (mean ± sd),[22],1.13 (0.06)
same,Fold difference NO/ONOO− (mean ± sd),[22],1.37 (0.10)
same,Fold difference ONOO− (mean ± sd),[22],0.83 (0.06)
same,Fold difference NO (mean ± sd),[23],1.19 (0.02)
same,Fold difference NO/ONOO− (mean ± sd),[23],1.47 (0.08)
same,Fold difference ONOO− (mean ± sd),[23],0.81 (0.03)
same,Fold difference NO (mean ± sd),[24],1.19 (0.08)
same,Fold difference NO/ONOO− (mean ± sd),[24],1.47 (0.14)
same,Fold difference ONOO− (mean ± sd),[24],0.81 (0.04)
same,Fold difference NO (mean ± sd),[25],1.11 (0.05)
same,Fold difference NO/ONOO− (mean ± sd),[25],1.33 (0.06)
same,Fold difference ONOO− (mean ± sd),[25],0.84 (0.04)
same,Fold difference NO (mean ± sd),[26],1.14 (0.06)
same,Fold difference NO/ONOO− (mean ± sd),[26],1.39 (0.14)
same,Fold difference ONOO− (mean ± sd),[26],0.83 (0.11)
same,Fold difference NO (mean ± sd),[27],1.12 (0.09)
same,Fold difference NO/ONOO− (mean ± sd),[27],1.29 (0.01)
same,Fold difference ONOO− (mean ± sd),[27],0.87 (0.06)
same,Fold difference NO (mean ± sd),"Caucasian, (LA-419 5 μM)/(control), G894T G/G, n=10",1.19 (0.07)

# From patent publication US20130131161A1, “METHODS AND COMPOSITIONS FOR CARDIOVASCULAR DISEASES AND CONDITIONS” (priority 2009, published 2013)
